In the NIST ThermoML archive (doi:10.1021/je900807v):
± gives the expanded uncertainty stated by the source.

Tests used:
[1] = 298.15 K, 101.33 kPa, Liquid
[2] = refractive index (Na D-line) (dimensionless); conditions: 298.15 K; 101.33 kPa; Liquid; Standard Abbe refractometry
[3] = xn = mol fraction of the nth substance listed; conditions: 298.15 K, 101 kPa, Liquid

## Cc1ccccc1 [toluene]
[1]
  mass density: 862.17 ± 0.18 kg/m3
[2]
  refractive index: 1.49399 ± 0.00068

## CCOS(=O)(=O)[O-].CC[n+]1cccc(C)c1 [1-ethyl-3-methylpyridinium ethylsulfate]
[1]; Vibrating tube method
  mass density: 1219.61 ± 0.42 kg/m3
[2]
  refractive index: 1.50591 ± 0.0007

## CC1CCCCC1 [methylcyclohexane] + c1ccccc1
[3]; x1 = 0.0504
  mass density: 865.01 ± 0.18 kg/m3
[3]; x1 = 0.099
  mass density: 857.13 ± 0.19 kg/m3
[3]; x1 = 0.1998
  mass density: 841.92 ± 0.2 kg/m3
[3]; x1 = 0.2978
  mass density: 829.01 ± 0.22 kg/m3
[3]; x1 = 0.3991
  mass density: 816.54 ± 0.24 kg/m3
[3]; x1 = 0.4993
  mass density: 805.76 ± 0.26 kg/m3
[3]; x1 = 0.598
  mass density: 796.03 ± 0.28 kg/m3
[3]; x1 = 0.6991
  mass density: 787.22 ± 0.3 kg/m3
[3]; x1 = 0.7981
  mass density: 779.31 ± 0.32 kg/m3
[3]; x1 = 0.8961
  mass density: 772.04 ± 0.34 kg/m3
[3]; x1 = 0.9523
  mass density: 768.25 ± 0.35 kg/m3
[3]; x1 = 1
  mass density: 765.02 ± 0.36 kg/m3

## CC1CCCCC1 [methylcyclohexane]
[1]
  mass density: 765.02 ± 0.36 kg/m3
[2]
  refractive index: 1.42062 ± 0.0007

## Cc1ccccc1 [toluene] + CC1CCCCC1
[3]; x2 = 0
  mass density: 862.17 ± 0.18 kg/m3

## CC1CCCCC1 [methylcyclohexane] + CCc1ccccc1
[3]; x1 = 0.0494
  mass density: 857.22 ± 0.19 kg/m3
[3]; x1 = 0.0975
  mass density: 852.13 ± 0.19 kg/m3
[3]; x1 = 0.1983
  mass density: 841.55 ± 0.21 kg/m3
[3]; x1 = 0.2981
  mass density: 831.2 ± 0.23 kg/m3
[3]; x1 = 0.4008
  mass density: 820.93 ± 0.25 kg/m3
[3]; x1 = 0.5005
  mass density: 811.01 ± 0.26 kg/m3
[3]; x1 = 0.6001
  mass density: 801.41 ± 0.28 kg/m3
[3]; x1 = 0.7006
  mass density: 792.06 ± 0.3 kg/m3
[3]; x1 = 0.7952
  mass density: 783.15 ± 0.32 kg/m3
[3]; x1 = 0.8949
  mass density: 774.23 ± 0.34 kg/m3
[3]; x1 = 0.9495
  mass density: 769.34 ± 0.35 kg/m3
[3]; x1 = 1
  mass density: 765.02 ± 0.36 kg/m3

## CC1CCCCC1 [methylcyclohexane] + Cc1ccccc1
[3]; x1 = 0.05
  mass density: 855.9 ± 0.18 kg/m3
[3]; x1 = 0.0998
  mass density: 849.91 ± 0.19 kg/m3
[3]; x1 = 0.198
  mass density: 838.24 ± 0.21 kg/m3
[3]; x1 = 0.2951
  mass density: 827.41 ± 0.22 kg/m3
[3]; x1 = 0.3968
  mass density: 816.83 ± 0.24 kg/m3
[3]; x1 = 0.4959
  mass density: 806.9 ± 0.26 kg/m3
[3]; x1 = 0.5973
  mass density: 797.45 ± 0.28 kg/m3
[3]; x1 = 0.697
  mass density: 788.64 ± 0.3 kg/m3
[3]; x1 = 0.7954
  mass density: 780.42 ± 0.32 kg/m3
[3]; x1 = 0.8932
  mass density: 772.71 ± 0.34 kg/m3
[3]; x1 = 0.9487
  mass density: 768.66 ± 0.35 kg/m3
[3]; x1 = 1
  mass density: 765.02 ± 0.36 kg/m3

## c1ccccc1 [benzene] + CC1CCCCC1
[3]; x2 = 0
  mass density: 873.57 ± 0.17 kg/m3

## CCc1ccccc1 [ethylbenzene] + CC1CCCCC1
[3]; x2 = 0
  mass density: 862.51 ± 0.18 kg/m3

## c1ccccc1 [benzene]
[1]
  mass density: 873.57 ± 0.17 kg/m3
[2]
  refractive index: 1.49774 ± 0.00068

## CCc1ccccc1 [ethylbenzene]
[1]
  mass density: 862.51 ± 0.18 kg/m3
[2]
  refractive index: 1.49304 ± 0.00068
